# Measured values taken from patent US20030171575A1, “Process for improving sucralose purity and yield” (priority 2002, published 2003).
# Legend:
# [1] = Blinded three-sample taste panel, model soft drink with 10 ppm sucralose (Example 7); format: in vivo, panelists; details: 10 ppm sucralose in model soft drink (0.14% citric acid, 0.04% trisodium phosphate, pH 3.2)
# Description: Purified sucralose is prepared by the process of solvent—solvent extraction and sequential recrystallizations as shown in Examples 1 and 2 of the present invention. Next, the effect on palatability of a beverage by purified sucralose is tested.
# (§1) Sucralose solutions are prepared by adding crystalline sucralose to a model soft drink composition that contains 0.14% citric acid and 0.04% trisodium phosphate. The pH of this composition is 3.2. Crystalline sucralose compositions are added to the soft drink composition to yield final levels of 10 ppm sucralose.
# A model soft drink composition without sucralose is also prepared.
# (§2) Panelists are selected from the general population, and no specific demographic parameters are utilized in recruiting the panelists. The product samples are prepared and served chilled. Portions are dispensed into individual servings for the panelists. Samples are presented to panelists in a blinded manner (samples are identified only by a random digit label). Each panelist receives three samples for tasting, and panelists are given a randomized sequence in which to taste the samples. […]
# Statistical significance of the correctness of the scores (i.e., panelist ability to detect the sample that is different from the other two) is determined by use of a statistical table that correlates the number of correct responses with a p value.
# [2] = Blinded three-sample taste panel, model soft drink with 100 ppm sucralose (Example 3); format: in vivo, panelists; details: 100 ppm sucralose in model soft drink (0.14% citric acid, 0.04% trisodium phosphate, pH 3.2), against samples without sucralose
# Description: Purified sucralose is prepared by the process of solvent-solvent extraction and sequential recrystallizations as shown in Examples 1 and 2 of the present invention. Next the taste of the resultant composition is tested in a beverage.
# as §1, with “100 parts per million (ppm).” for “10 ppm sucralose.”
# as §2, with “tasting (one sample comprising 100 ppm sucralose and two samples not comprising sucralose),” for “tasting,”
# Statistical significance of the correctness of the scores (i.e. panelist ability to detect the sample that is different from the other two) is determined by use of a statistical table that correlates the number of correct responses with a p value.
# [3] = background statement; cited from earlier work
# [4] = Blinded paired palatability panel, consumer product such as ice cream with 150 ppm sucralose (Example 5); format: in vivo, panelists; details: 150 ppm sucralose in consumer product such as ice cream, served chilled
# Description: Purified sucralose is prepared by the process of solvent-solvent extraction and sequential recrystallizations as shown in Examples 1 and 2 of the present invention. Next, sucralose is used to enhance the palatability of a consumer product.
# The sucralose is added to one group (1G) of two groups (1G and 2G) of a consumer product such as ice cream to yield final levels of 150 ppm sucralose.
# as §2, with “two groups of” for “product”, “two” for “three”, “samples. Thus, the order of tasting is completely random. In each set of two samples, one sample is from G1 and the other sample is from G2. Panelists are asked to select the sample that tastes the most palatable, record that result and record how confident they are of the result.” for “samples.”
# Statistical significance of the correctness of the scores (i.e., panelist ability to detect the most palatable sample) is determined by use of a statistical table that correlates the number of correct responses with a p value.
smiles,measurement,setting,value
"OC[C@H]1O[C@H](O[C@]2(CCl)O[C@H](CCl)[C@@H](O)[C@@H]2O)[C@H](O)[C@@H](O)[C@H]1Cl [Sucralose, 4,1′,6′-trichloro-4,1′,6′-trideoxygalactosucrose]",palatability against samples not comprising sucralose,[1],more palatable
same,palatability of the odd sample (comments of panelists choosing the correct sample),[2],increased palatability
same,sweetness intensity compared with sucrose,[3],several hundred times
same,palatability against samples not comprising sucralose,[4],more palatable
